These results are taken from patent US20210205312A1, “TREATMENT OF MEMBRANOUS NEPHROPATHY, IGG4-RELATED DISEASE, AND ANTIPHOSPHOLIPID SYNDROME USING BTK INHIBITOR 2-[(3R)-3-[4-AMINO-3-(2-FLUORO-4-PHENOXY-PHENYL)PYRAZOLO[3,4-d]PYRIMIDIN-1-YL]PIPERIDINE-1-CARBONYL]-4-METHYL-4-[4-(OXETAN-3-YL)PIPERAZIN-1-YL]PENT-2-ENENITRILE” (Principia Biopharma Inc., priority 2020, published 2021).

Like-named read-outs stand apart in the source and are kept apart here.

By IC50 is commonly meant the point on the concentration scale where inhibition reaches its midpoint.

For one assay, the system named is ADCC. Description: Antibody-dependent cell-mediated cytotoxicity (ADCC) in combination with anti-CD20 antibodies. Type of assay: cell-based.
The test system of assay [1] is enriched B-cells from healthy volunteers. The assay is described as follows: Inhibition of B-cell antibody production (IgG and IgM AlphaLISA). The note with it: for IC50: Homo sapiens, B-cell, 168 h. A general note: In Alpha technology, singlet oxygen from a donor bead excites a nearby acceptor bead.
Description: B-cells were enriched from leukocyte concentrate of TrimaAccel® LRS chamber recovered after a plateletpheresis procedure from healthy volunteers (Stanford Blood Center, Palo Alto, Calif.) using the Straight from LRSC CD19 Microbead Kit (Miltenyi Biotech). […] IC50 was calculated in GraphPad Prism with non-linear regression using “log (inhibitor) vs. response—Variable slope (four parameters)” analysis with no constraints.
The test system of assay [2] is anti-GBM glomerulonephritis. The assay is described as follows: Mouse anti-GBM glomerulonephritis model. Type of assay: in vivo. As to the method: The mouse anti-GBM glomerulonephritis model involves antibody mediated autoimmunity, and the model is histologically and mechanistically similar to glomerulonephritis in humans. The model also includes kidney deposition of immune complexes (IC), targeting glomerular basement membrane. The efficacy of Compound (I) (also referred to as PRN1008) relative to the corticosteroid dexamethasone (Dex) was tested in a mouse anti-GBM glomerulonephritis model according to the design shown in FIG. 1. Briefly, to induce glomerulonephritis, mice were pre-sensitized with sheep IgG/FCA (Study Day −5). Five days later (Study Day 0), the mice received anti-GBM sheep IgG. Treatment with vehicle, Compound (I), or Dex with various dosage regimes (Compound (I): 10 mg/kg, 20 mg/kg, or 40 mg/kg QD or 20 mg/kg BID; Dex: 1 mg/kg QD; Vehicle: QD or BID) began at Study Day −1, one day prior to injection with anti-GBM sheep IgG. Treatment continued until Study Day 10, for […] treatment in total. Urine protein analysis was conducted on Study Days −6, −4, −1, 1, 3, 6, 8, and 10. Following Study Day 10, mice serum BUN levels were analyzed as a measure of kidney function, and kidney histology was performed.

Assay [3] concerns CD20+ B-cells in human whole blood. The assay is described as follows: B-cell activation: anti-IgM-induced CD69 expression on CD20+ B-cells in human whole blood (flow cytometry). It is filed as cell-based. The conditions noted are these: read-out: IC50 for inhibition of CD69 B-cell expression. The procedure: Compound (I) can inhibit B-cell activation, BCR dependent B-cell proliferation, and de novo antibody production. To determine the functional activity of Compound (I), the ability of the compound to inhibit B-cell activation as assessed by anti-IgM-induced CD69 expression in CD20+ B-cells in human whole blood was determined (FIG. 7). […]. As an additional measure of the effects of Compound (I) on B-cell function, the ability of Compound (I) to inhibit B-cell receptor (BCR)-induced human B-cell proliferation was determined. […]. A randomized multicenter trial comparing low-dose prednisolone versus observation for prevention of recurrences in adult immune thrombocytopenia. Clin Appl Thromb Hemost 24: 867-873.).
For orientation: A flow cytometer gives signals particle by particle.

Setting [4] is: 10, 20 or 40 mg/kg QD or 20 mg/kg BID, Study Day -1 to 10.

As for `CC(C)(C=C(C#N)C(=O)N1CCC[C@@H](n2nc(-c3ccc(Oc4ccccc4)cc3F)c3c(N)ncnc32)C1)N1CCN(C2COC2)CC1` [Compound (I), 2-[(3R)-3-[4-amino-3-(2-fluoro-4-phenoxy-phenyl)pyrazolo[3,4-d]pyrimidin-1-yl]piperidine-1-carbonyl]-4-methyl-4-[4-(oxetan-3-yl)piperazin-1-yl]pent-2-enenitrile], the “effect on ADCC” value with ADCC was “did not block”. In addition, the “T-dependent and T-independent antibody production (IgG and IgM)” value in assay [1] (CpG, TNP-LPS or anti-CD40+IL-21 stimulation, 7 days) is “inhibited”. Further, the IC50 in assay [1] (read-out: IgG antibody production IC50, CpG (TLR-9 agonist) stimulation, T-independent, 7 days) worked out at 50 ± 90 nM; in assay [1] (read-out: IgG antibody production IC50, TNP-LPS stimulation, T-independent, 7 days), 300 ± 600 nM; in assay [1] (read-out: IgG antibody production IC50, anti-CD40 + IL-21 stimulation (T-cell dependent), 7 days), 20 ± 20 nM; in assay [1] (read-out: IgM antibody production IC50, CpG (TLR-9 agonist) stimulation, T-independent, 7 days), 1 ± 1 nM; in assay [1] (read-out: IgM antibody production IC50, TNP-LPS stimulation, T-independent, 7 days), 200 ± 600 nM; in assay [1] (read-out: IgM antibody production IC50, anti-CD40 + IL-21 stimulation (T-cell dependent), 7 days), 800 ± 1000 nM. Further, the concentration for half-maximal inhibition (IC50) in assay [3] came out at 126 ± 32 nM. Moreover, in assay [2] (setting [4]), the “inhibition of kidney weight gain (surrogate for kidney inflammation)” value was “dose dependent inhibition”. For the same molecule, in assay [2] (setting [4]), the “inhibition of severe proteinuria” value is listed as “dose dependent inhibition”. In addition, the “inhibition of serum blood urea nitrogen (BUN) levels” value in assay [2] (10, 20 or 40 mg/kg QD or 20 mg/kg BID, Study Day -1 to 10, BUN after Day 10) is on record as “dose dependent inhibition”. Also, in assay [2] (compared with Dex 1 mg/kg QD), the “kidney pathology (histology)” value is on record as “significantly reduced kidney pathology, superior to a steroid comparator (Dex)”. In assay [2] (urine protein analysis up to Study Day 10), the “proteinuria during the study” value is on record as “reduced proteinuria”.
